Measured values as given in PubChem BioAssay (NCI).
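Cultured in 96-well plates, cells were exposed to test compound for 48 hours across five concentrations. At the GI50, growth is halved. TGI: total growth inhibition.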

How the values were obtained:
Test in all cases: NCI-60 cell line screen, 48 h
CAKI-1 renal = system: CAKI-1 renal
HOP-92 NSCLC = system: HOP-92 NSCLC
OVCAR-4 ovarian = system: OVCAR-4 ovarian
786-0 renal = system: 786-0 renal
A549 NSCLC = system: A549 NSCLC
ACHN renal = system: ACHN renal
BT-549 breast = system: BT-549 breast
CCRF-CEM leukemia = system: CCRF-CEM leukemia
EKVX NSCLC = system: EKVX NSCLC
HCC-2998 colon = system: HCC-2998 colon
HCT-116 colon = system: HCT-116 colon
HCT-15 colon = system: HCT-15 colon
HOP-62 NSCLC = system: HOP-62 NSCLC
IGROV1 ovarian = system: IGROV1 ovarian
K-562 leukemia = system: K-562 leukemia
KM12 colon = system: KM12 colon
M14 melanoma = system: M14 melanoma
MOLT-4 leukemia = system: MOLT-4 leukemia
NCI-H23 lung = system: NCI-H23 lung
NCI-H522 lung = system: NCI-H522 lung
OVCAR-3 ovarian = system: OVCAR-3 ovarian
OVCAR-5 ovarian = system: OVCAR-5 ovarian
OVCAR-8 ovarian = system: OVCAR-8 ovarian
RPMI-8226 leukemia = system: RPMI-8226 leukemia
SF-268 CNS = system: SF-268 CNS
SF-539 CNS = system: SF-539 CNS
SK-MEL-28 melanoma = system: SK-MEL-28 melanoma
SK-MEL-5 melanoma = system: SK-MEL-5 melanoma
SK-OV-3 ovarian = system: SK-OV-3 ovarian
SN12C renal = system: SN12C renal
SNB-19 CNS = system: SNB-19 CNS
SR leukemia = system: SR leukemia
SW-620 colon = system: SW-620 colon
T-47D breast = system: T-47D breast
UO-31 renal = system: UO-31 renal
A498 renal = system: A498 renal
COLO 205 colon = system: COLO 205 colon
DU-145 prostate = system: DU-145 prostate
HL-60(TB) leukemia = system: HL-60(TB) leukemia
HS 578T breast = system: HS 578T breast
HT29 colon = system: HT29 colon
LOX IMVI melanoma = system: LOX IMVI melanoma
MALME-3M melanoma = system: MALME-3M melanoma
MCF7 breast = system: MCF7 breast
MDA-MB-231 breast = system: MDA-MB-231 breast
MDA-MB-435 = system: MDA-MB-435
NCI-H226 lung = system: NCI-H226 lung
NCI-H460 lung = system: NCI-H460 lung
NCI/ADR-RES ovarian = system: NCI/ADR-RES ovarian
PC-3 prostate = system: PC-3 prostate
RXF 393 renal = system: RXF 393 renal
SF-295 CNS = system: SF-295 CNS
SK-MEL-2 melanoma = system: SK-MEL-2 melanoma
SNB-75 CNS = system: SNB-75 CNS
TK-10 renal = system: TK-10 renal
U251 CNS = system: U251 CNS
UACC-257 melanoma = system: UACC-257 melanoma
UACC-62 melanoma = system: UACC-62 melanoma

With `CC(=O)OCC1OC(n2c(=S)n(-c3ccccc3)c(=O)c3ccccc32)C(OC(C)=O)C(OC(C)=O)C1OC(C)=O` (stereo not given) the TGI (CAKI-1 renal) was over 100 µM, the TGI (HOP-92 NSCLC) was over 100 µM and the TGI (OVCAR-4 ovarian) was over 100 µM.

Compound `CN(C)CCOc1ccc2[nH]c(C(=O)N3CC(CCl)c4ccc(N)cc43)cc2c1` (stereo not given) has a TGI (786-0 renal) of 5.48 µM, a TGI (A549 NSCLC) of over 40.3 µM and a TGI (ACHN renal) of 1.07 µM. The TGI (BT-549 breast) was 0.612 µM, the TGI (CAKI-1 renal) was over 100 µM and the TGI (CCRF-CEM leukemia) was 0.975 µM. It also gave a TGI (EKVX NSCLC) of 5.92 µM, a TGI (HCC-2998 colon) of 0.823 µM and a TGI (HCT-116 colon) of 12.9 µM. It also gave a TGI (HCT-15 colon) of 20.7 µM, a TGI (HOP-62 NSCLC) of 0.69 µM and a TGI (HOP-92 NSCLC) of 4.18 µM. It also gave a TGI (IGROV1 ovarian) of over 67.6 µM, a TGI (K-562 leukemia) of over 100 µM and a TGI (KM12 colon) of 0.294 µM. For the same compound, the TGI (M14 melanoma) was 1.39 µM, the TGI (MOLT-4 leukemia) was 0.0565 µM and the TGI (NCI-H23 lung) was 0.341 µM. It also gave a TGI (NCI-H522 lung) of 0.0683 µM, a TGI (OVCAR-3 ovarian) of 0.653 µM and a TGI (OVCAR-4 ovarian) of 0.46 µM. It also gave a TGI (OVCAR-5 ovarian) of 18.2 µM, a TGI (OVCAR-8 ovarian) of over 35.8 µM and a TGI (RPMI-8226 leukemia) of 1.14 µM. It also gave a TGI (SF-268 CNS) of 1.01 µM, a TGI (SF-539 CNS) of over 100 µM and a TGI (SK-MEL-28 melanoma) of 3.21 µM. The TGI (SK-MEL-5 melanoma) was 0.261 µM, the TGI (SK-OV-3 ovarian) was over 100 µM and the TGI (SN12C renal) was over 22.3 µM. The TGI (SNB-19 CNS) was 21.8 µM, the TGI (SR leukemia) was over 100 µM and the TGI (SW-620 colon) was over 100 µM. It also gave a TGI (T-47D breast) of over 100 µM and a TGI (UO-31 renal) of over 40.7 µM.

Work on `Clc1ccc(Nc2ncnc3c2sc2ncccc23)c(Cl)c1` yielded a GI50 (786-0 renal) of under 0.01 µM, a TGI (786-0 renal) of over 100 µM and a GI50 (A498 renal) of 0.0317 µM. It also gave a TGI (A498 renal) of over 22.1 µM, a GI50 (A549 NSCLC) of under 0.01 µM and a TGI (A549 NSCLC) of over 100 µM. It also gave a GI50 (ACHN renal) of under 0.01 µM, a TGI (ACHN renal) of 3.95 µM and a GI50 (BT-549 breast) of 0.0243 µM. It also gave a TGI (BT-549 breast) of over 100 µM, a GI50 (CAKI-1 renal) of under 0.0107 µM and a TGI (CAKI-1 renal) of over 33.9 µM. It also gave a GI50 (CCRF-CEM leukemia) of 0.0218 µM, a TGI (CCRF-CEM leukemia) of over 100 µM and a GI50 (COLO 205 colon) of 0.0573 µM. The TGI (COLO 205 colon) was over 25.8 µM, the GI50 (DU-145 prostate) was 0.0276 µM and the TGI (DU-145 prostate) was over 100 µM. The GI50 (EKVX NSCLC) was 0.0826 µM, the TGI (EKVX NSCLC) was over 100 µM and the GI50 (HCT-116 colon) was under 0.01 µM. For the same compound, the TGI (HCT-116 colon) was over 100 µM, the GI50 (HCT-15 colon) was 0.052 µM and the TGI (HCT-15 colon) was over 100 µM. The GI50 (HL-60(TB) leukemia) was under 0.0137 µM, the TGI (HL-60(TB) leukemia) was over 100 µM and the GI50 (HOP-62 NSCLC) was under 0.01 µM. It also gave a TGI (HOP-62 NSCLC) of over 19.7 µM, a GI50 (HOP-92 NSCLC) of 0.0632 µM and a TGI (HOP-92 NSCLC) of 21.6 µM. For the same compound, the GI50 (HS 578T breast) was over 100 µM, the TGI (HS 578T breast) was over 100 µM and the GI50 (HT29 colon) was 0.0462 µM. The TGI (HT29 colon) was over 100 µM, the GI50 (IGROV1 ovarian) was over 100 µM and the TGI (IGROV1 ovarian) was over 100 µM. It also gave a GI50 (K-562 leukemia) of 0.27 µM, a TGI (K-562 leukemia) of over 100 µM and a GI50 (KM12 colon) of 3.39 µM. The TGI (KM12 colon) was over 100 µM, the GI50 (LOX IMVI melanoma) was 0.0214 µM and the TGI (LOX IMVI melanoma) was over 100 µM. It also gave a GI50 (M14 melanoma) of under 0.01 µM, a TGI (M14 melanoma) of 0.038 µM and a GI50 (MALME-3M melanoma) of 6.67 µM. The TGI (MALME-3M melanoma) was over 100 µM, the GI50 (MCF7 breast) was under 0.01 µM and the TGI (MCF7 breast) was over 100 µM. The GI50 (MDA-MB-231 breast) was over 100 µM, the TGI (MDA-MB-231 breast) was over 100 µM and the GI50 (MDA-MB-435) was 0.0482 µM. For the same compound, the TGI (MDA-MB-435) was over 100 µM, the GI50 (MOLT-4 leukemia) was 0.0382 µM and the TGI (MOLT-4 leukemia) was over 100 µM. The GI50 (NCI-H226 lung) was 0.42 µM, the TGI (NCI-H226 lung) was over 100 µM and the GI50 (NCI-H23 lung) was under 0.01 µM. It also gave a TGI (NCI-H23 lung) of 1.47 µM, a GI50 (NCI-H460 lung) of under 0.01 µM and a TGI (NCI-H460 lung) of over 100 µM. For the same compound, the GI50 (NCI-H522 lung) was under 0.0122 µM, the TGI (NCI-H522 lung) was over 100 µM and the GI50 (NCI/ADR-RES ovarian) was 0.0139 µM. It also gave a TGI (NCI/ADR-RES ovarian) of over 100 µM, a GI50 (OVCAR-3 ovarian) of 1 µM and a TGI (OVCAR-3 ovarian) of over 100 µM. It also gave a GI50 (OVCAR-4 ovarian) of over 100 µM, a TGI (OVCAR-4 ovarian) of over 100 µM and a GI50 (OVCAR-5 ovarian) of 0.0576 µM. For the same compound, the TGI (OVCAR-5 ovarian) was over 100 µM, the GI50 (OVCAR-8 ovarian) was under 0.0135 µM and the TGI (OVCAR-8 ovarian) was over 100 µM. It also gave a GI50 (PC-3 prostate) of 2.72 µM, a TGI (PC-3 prostate) of over 100 µM and a GI50 (RPMI-8226 leukemia) of 0.0326 µM. It also gave a TGI (RPMI-8226 leukemia) of over 100 µM, a GI50 (RXF 393 renal) of 0.0492 µM and a TGI (RXF 393 renal) of over 100 µM. It also gave a GI50 (SF-268 CNS) of 0.0246 µM, a TGI (SF-268 CNS) of over 100 µM and a GI50 (SF-295 CNS) of 0.0309 µM. For the same compound, the TGI (SF-295 CNS) was over 100 µM, the GI50 (SF-539 CNS) was 0.0225 µM and the TGI (SF-539 CNS) was 7.37 µM. The GI50 (SK-MEL-2 melanoma) was 30.7 µM, the TGI (SK-MEL-2 melanoma) was over 100 µM and the GI50 (SK-MEL-28 melanoma) was 6.39 µM. It also gave a TGI (SK-MEL-28 melanoma) of over 100 µM, a GI50 (SK-MEL-5 melanoma) of 0.0254 µM and a TGI (SK-MEL-5 melanoma) of over 100 µM. For the same compound, the GI50 (SK-OV-3 ovarian) was 0.137 µM, the TGI (SK-OV-3 ovarian) was over 100 µM and the GI50 (SN12C renal) was 0.126 µM. For the same compound, the TGI (SN12C renal) was over 100 µM, the GI50 (SNB-19 CNS) was under 0.0121 µM and the TGI (SNB-19 CNS) was over 100 µM. It also gave a GI50 (SNB-75 CNS) of 0.0689 µM, a TGI (SNB-75 CNS) of over 30.9 µM and a GI50 (SR leukemia) of under 0.0187 µM. It also gave a TGI (SR leukemia) of over 100 µM, a GI50 (SW-620 colon) of 0.0617 µM and a TGI (SW-620 colon) of over 100 µM. It also gave a GI50 (TK-10 renal) of over 100 µM, a TGI (TK-10 renal) of over 100 µM and a GI50 (U251 CNS) of 0.0152 µM. For the same compound, the TGI (U251 CNS) was over 100 µM, the GI50 (UACC-257 melanoma) was 0.0557 µM and the TGI (UACC-257 melanoma) was over 100 µM. The GI50 (UACC-62 melanoma) was 0.0279 µM, the TGI (UACC-62 melanoma) was 8.37 µM and the GI50 (UO-31 renal) was under 0.01 µM. The TGI (UO-31 renal) was 4.32 µM.
